42 compounds from patent US20240336622A1 (The Board of Regents of The University of Texas System, priority 2021, published 2024) can be followed below.

One experiment has as its system UWB1 cells. Briefly: cells. The note with it: read-out: IC50 (μM) UWB1 cells.
In the case of `C=C1[C@H](O[C@@H]2C[C@@H](c3ccoc3)C(C)=C2I)[C@@H]2OC(=O)[C@]3(C)C=CC(=O)[C@@](C)([C@@H]23)[C@H]1CC(=O)OC` [S-26], the IC50 was determined as 0.226 µM.

With `CC[Si](CC)(CC)O[C@H]1C(=O)[C@H](CC(=O)OC)[C@@]2(C)C(=O)C=C[C@@]3(C)C(=O)O[C@@H]1[C@H]23` [S-39], the IC50 was found to be 1.18 µM.

With `COC(=O)C[C@H]1[C@]2(C)C3=C(C)[C@@H](c4cccc(O[Si](C)(C)C(C)(C)C)c4)C[C@H]3O[C@@H]2[C@@H]2OC(=O)[C@]3(C)C=CC(=O)[C@@]1(C)[C@@H]23` [S-114], the IC50 is 0.242 µM.

Take `COC(=O)C[C@H]1[C@@H]2CC3=C(C)[C@@H](c4cccc(O[Si](C)(C)C(C)(C)C)c4)C[C@H]3O[C@@H]2[C@@H]2OC(=O)[C@]3(C)C=CC(=O)[C@@]1(C)[C@@H]23` [S-115]: the IC50 worked out at 0.196 µM.

Consider `COC(=O)C[C@H]1[C@@H]2CC3=C(C)[C@@H](c4cccc(O[Si](C)(C)C(C)(C)C)c4)C[C@@H]3O[C@@H]2[C@@H]2OC(=O)[C@]3(C)C=CC(=O)[C@@]1(C)[C@@H]23` [S-116], for which the IC50 amounted to 0.15 µM.

`COC(=O)C[C@H]1[C@]2(C)C3=C(C)[C@H](c4ccc(O[Si](C)(C)C(C)(C)C)cc4)C[C@H]3O[C@@H]2[C@@H]2OC(=O)[C@]3(C)C=CC(=O)[C@@]1(C)[C@@H]23` [S-117]: the 50% inhibitory concentration (IC50) is 0.0788 µM.

`COC(=O)C[C@H]1[C@@H]2CC3=C(C)[C@H](c4ccc(O[Si](C)(C)C(C)(C)C)cc4)C[C@H]3O[C@@H]2[C@@H]2OC(=O)[C@]3(C)C=CC(=O)[C@@]1(C)[C@@H]23` [S-118]: the IC50 was 0.0815 µM.

For the compound `COC(=O)C[C@H]1[C@@H]2CC3=C(C)[C@H](c4ccc(O[Si](C)(C)C(C)(C)C)cc4)C[C@@H]3O[C@@H]2[C@@H]2OC(=O)[C@]3(C)C=CC(=O)[C@@]1(C)[C@@H]23` [S-119], the IC50 came to 0.188 µM.

In the case of `COC(=O)C[C@H]1[C@@H]2CC3=C(C)[C@@H](c4ccc(O[Si](C)(C)C(C)(C)C)cc4)C[C@H]3O[C@@H]2[C@@H]2OC(=O)[C@]3(C)C=CC(=O)[C@@]1(C)[C@@H]23` [S-121], the IC50 was found to be 0.19 µM.

As to `COC(=O)C[C@H]1[C@@H]2CC3=C(C)[C@@H](c4ccc(O[Si](C)(C)C(C)(C)C)cc4)C[C@@H]3O[C@@H]2[C@@H]2OC(=O)[C@]3(C)C=CC(=O)[C@@]1(C)[C@@H]23` [S-122], the IC50 came out at 0.0534 µM.

Take `COC(=O)C[C@H]1[C@@H]2CC3=C(C)[C@H](c4ccccc4O[Si](C)(C)C(C)(C)C)C[C@@H]3O[C@@H]2[C@@H]2OC(=O)[C@]3(C)C=CC(=O)[C@@]1(C)[C@@H]23` [S-127]: the IC50 was found to be 0.927 µM.

Consider `COC(=O)C[C@H]1[C@]2(C)C3=C(C)[C@H](c4ccccc4O[Si](C)(C)C(C)(C)C)C[C@H]3O[C@@H]2[C@@H]2OC(=O)[C@]3(C)C=CC(=O)[C@@]1(C)[C@@H]23` [S-128], for which the IC50 worked out at 0.0908 µM.

Consider `COC(=O)C[C@H]1[C@@H]2CC3=C(C)[C@H](c4ccccc4O[Si](C)(C)C(C)(C)C)C[C@H]3O[C@@H]2[C@@H]2OC(=O)[C@]3(C)C=CC(=O)[C@@]1(C)[C@@H]23` [S-129], for which the IC50 was 0.163 µM.

As to `COC(=O)C[C@H]1[C@]2(C)C3=C(C)[C@H](c4ccc(CO[Si](C)(C)C(C)(C)C)cc4)C[C@H]3O[C@@H]2[C@@H]2OC(=O)[C@]3(C)C=CC(=O)[C@@]1(C)[C@@H]23` [S-146], the IC50 was 0.18 µM.

`COC(=O)C[C@H]1[C@@H]2CC3=C(C)[C@H](c4ccc(CO[Si](C)(C)C(C)(C)C)cc4)C[C@@H]3O[C@@H]2[C@@H]2OC(=O)[C@]3(C)C=CC(=O)[C@@]1(C)[C@@H]23` [S-147]: the IC50 came out at 0.192 µM.

Take `COC(=O)C[C@H]1[C@]2(C)C3=C(C)[C@@H](c4ccc(CO[Si](C)(C)C(C)(C)C)cc4)C[C@H]3O[C@@H]2[C@@H]2OC(=O)[C@]3(C)C=CC(=O)[C@@]1(C)[C@@H]23` [S-148]: the IC50 was 0.161 µM.

With `COC(=O)C[C@H]1[C@@H]2CC3=C(C)[C@@H](c4ccc(CO[Si](C)(C)C(C)(C)C)cc4)C[C@@H]3O[C@@H]2[C@@H]2OC(=O)[C@]3(C)C=CC(=O)[C@@]1(C)[C@@H]23` [S-149], the IC50 is 0.163 µM.

Staying with this experiment, now noted: read-out: IC50 (μM) UWB1 cells, UWB1 cell viability.
Turning to `COC(=O)C[C@H]1[C@]2(C)C3=C(C)[C@H](c4ccc(O)cc4)C[C@H]3O[C@@H]2[C@@H]2OC(=O)[C@]3(C)C=CC(=O)[C@@]1(C)[C@@H]23` [S-123], the IC50 was found to be 0.464 µM.

As to `COC(=O)C[C@H]1[C@]2(C)C3=C(C)[C@H](c4ccc(OC(=O)C(C)(C)C)cc4)C[C@H]3O[C@@H]2[C@@H]2OC(=O)[C@]3(C)C=CC(=O)[C@@]1(C)[C@@H]23` [S-124], the IC50 was found to be 0.564 µM.

`COC(=O)C[C@H]1[C@@H]2CC3=C(C)[C@H](c4ccc(OC(=O)C(C)(C)C)cc4)C[C@@H]3O[C@@H]2[C@@H]2OC(=O)[C@]3(C)C=CC(=O)[C@@]1(C)[C@@H]23` [S-126]: the IC50 amounted to 0.141 µM.

Take `COC(=O)C[C@H]1[C@@H]2CC3=C(C)[C@H](c4ccc(OS(=O)(=O)C(F)(F)F)cc4)C[C@@H]3O[C@@H]2[C@@H]2OC(=O)[C@]3(C)C=CC(=O)[C@@]1(C)[C@@H]23` [S-130]: the IC50 was found to be 0.225 µM.

With `COC(=O)C[C@H]1[C@]2(C)C3=C(C)[C@H](C4=CCOC4=O)C[C@H]3O[C@@H]2[C@@H]2OC(=O)[C@]3(C)C=CC(=O)[C@@]1(C)[C@@H]23` [S-131], the IC50 is 1.18 µM.

With `COC(=O)C[C@H]1[C@]2(C)C3=C(C)[C@H](c4ccc(-c5cc(C(C)(C)C)cc(C(C)(C)C)c5)cc4)C[C@H]3O[C@@H]2[C@@H]2OC(=O)[C@]3(C)C=CC(=O)[C@@]1(C)[C@@H]23` [S-132], the IC50 stood at 0.142 µM.

In the case of `COC(=O)C[C@H]1[C@@H]2CC3=C(C)[C@H](c4ccc(-c5cc(C(C)(C)C)cc(C(C)(C)C)c5)cc4)C[C@H]3O[C@@H]2[C@@H]2OC(=O)[C@]3(C)C=CC(=O)[C@@]1(C)[C@@H]23` [S-133], the IC50 came out at 0.186 µM.

As for `COC(=O)C[C@H]1[C@@H]2CC3=C(C)[C@H](c4ccc(-c5cc(C(C)(C)C)cc(C(C)(C)C)c5)cc4)C[C@@H]3O[C@@H]2[C@@H]2OC(=O)[C@]3(C)C=CC(=O)[C@@]1(C)[C@@H]23` [S-134], the IC50 amounted to 0.091 µM.

On to `COC(=O)C[C@H]1[C@]2(C)C3=C(C)[C@@H](c4ccc(-c5cc(C(C)(C)C)cc(C(C)(C)C)c5)cc4)C[C@H]3O[C@@H]2[C@@H]2OC(=O)[C@]3(C)C=CC(=O)[C@@]1(C)[C@@H]23` [S-135], for which the IC50 was found to be 0.185 µM.

With `COC(=O)C[C@H]1[C@@H]2CC3=C(C)[C@@H](c4ccc(-c5cc(C(C)(C)C)cc(C(C)(C)C)c5)cc4)C[C@H]3O[C@@H]2[C@@H]2OC(=O)[C@]3(C)C=CC(=O)[C@@]1(C)[C@@H]23` [S-136], the IC50 was 0.0934 µM.

Take `COC(=O)C[C@H]1[C@@H]2CC3=C(C)[C@@H](c4ccc(-c5cc(C(C)(C)C)cc(C(C)(C)C)c5)cc4)C[C@@H]3O[C@@H]2[C@@H]2OC(=O)[C@]3(C)C=CC(=O)[C@@]1(C)[C@@H]23` [S-137]: the IC50 turned out to be 0.169 µM.

Regarding `COC(=O)C[C@H]1[C@@H]2CC3=C(C)[C@@H](c4ccc(OS(=O)(=O)c5c(C)cc(C)cc5C)cc4)C[C@@H]3O[C@@H]2[C@@H]2OC(=O)[C@]3(C)C=CC(=O)[C@@]1(C)[C@@H]23` [S-139], the IC50 is 0.14 µM.

As for `COC(=O)C[C@H]1[C@@H]2CC3=C(C)[C@@H](c4ccc(OS(=O)(=O)c5ccc(C)cc5)cc4)C[C@@H]3O[C@@H]2[C@@H]2OC(=O)[C@]3(C)C=CC(=O)[C@@]1(C)[C@@H]23` [S-140], the IC50 was 0.119 µM.

On to `COC(=O)C[C@H]1[C@]2(C)C3=C(C)[C@H](c4ccc(C(C)(C)C)cc4)C[C@H]3O[C@@H]2[C@@H]2OC(=O)[C@]3(C)C=CC(=O)[C@@]1(C)[C@@H]23` [S-141], for which the IC50 worked out at 0.248 µM.

In the case of `COC(=O)C[C@H]1[C@@H]2CC3=C(C)[C@H](c4ccc(C(C)(C)C)cc4)C[C@@H]3O[C@@H]2[C@@H]2OC(=O)[C@]3(C)C=CC(=O)[C@@]1(C)[C@@H]23` [S-142], the IC50 was determined as 0.145 µM.

Take `COC(=O)C[C@H]1[C@@H]2CC3=C(C)[C@H](c4ccc(C(C)(C)C)cc4)C[C@H]3O[C@@H]2[C@@H]2OC(=O)[C@]3(C)C=CC(=O)[C@@]1(C)[C@@H]23` [S-143]: the IC50 turned out to be 0.238 µM.

Consider `COC(=O)C[C@H]1[C@@H]2CC3=C(C)[C@@H](c4ccc(C(C)(C)C)cc4)C[C@@H]3O[C@@H]2[C@@H]2OC(=O)[C@]3(C)C=CC(=O)[C@@]1(C)[C@@H]23` [S-144], for which the IC50 amounted to 0.14 µM.

As for `COC(=O)C[C@H]1[C@]2(C)C3=C(C)[C@@H](c4ccc(C(C)(C)C)cc4)C[C@H]3O[C@@H]2[C@@H]2OC(=O)[C@]3(C)C=CC(=O)[C@@]1(C)[C@@H]23` [S-145], the IC50 stood at 0.157 µM.

As for `COC(=O)C[C@H]1[C@@H]2CC3=C(C)[C@@H](c4ccc(CO)cc4)C[C@@H]3O[C@@H]2[C@@H]2OC(=O)[C@]3(C)C=CC(=O)[C@@]1(C)[C@@H]23` [S-150], the IC50 turned out to be 0.351 µM.

As to `COC(=O)C[C@H]1[C@@H]2CC3=C(C)[C@@H](c4ccc(C=O)cc4)C[C@@H]3O[C@@H]2[C@@H]2OC(=O)[C@]3(C)C=CC(=O)[C@@]1(C)[C@@H]23` [S-151], the IC50 worked out at 0.766 µM.

Regarding `COC(=O)C[C@H]1[C@@H]2CC3=C(C)[C@@H](c4ccc(C(=O)O)cc4)C[C@@H]3O[C@@H]2[C@@H]2OC(=O)[C@]3(C)C=CC(=O)[C@@]1(C)[C@@H]23` [S-152], the IC50 amounted to 2.88 µM.

For `COC(=O)C[C@H]1[C@@H]2CC3=C(C)[C@@H](c4ccc(C(=O)NC(C)(C)C)cc4)C[C@@H]3O[C@@H]2[C@@H]2OC(=O)[C@]3(C)C=CC(=O)[C@@]1(C)[C@@H]23` [S-153], the IC50 was 0.245 µM.

Regarding `CC1=C2[C@@H](C[C@H]1c1ccoc1)O[C@@H]1[C@@H]3OC(=O)[C@]4(C)C=CC(=O)[C@](C)([C@@H](CC(=O)OC(C)(C)C)[C@]21C)[C@@H]34` [S-154], the IC50 worked out at 0.453 µM.

For `CC1=C2C[C@@H]3[C@H](O[C@@H]2C[C@H]1c1ccoc1)[C@@H]1OC(=O)[C@]2(C)C=CC(=O)[C@@](C)([C@@H]12)[C@H]3CC(=O)OC(C)(C)C` [S-155], the IC50 stood at 0.306 µM.

In the case of `C=C1[C@H](O)[C@@H]2OC(=O)[C@]3(C)C=CC(=O)[C@@](C)([C@@H]23)[C@H]1CC(=O)OC(C)(C)C` [S-156], the IC50 is 3.65 µM.

The subject of another experiment is PARP1. The experiment can be described thus: PARP1 trapping activity of nimbolide analogs (FIGS. 19, 20). The class given is cell-based. The note with it: FIGS. 19 and 20.
Regarding `C=C1[C@H](O[C@@H]2C[C@@H](c3ccoc3)C(C)=C2I)[C@@H]2OC(=O)[C@]3(C)C=CC(=O)[C@@](C)([C@@H]23)[C@H]1CC(=O)OC` [S-26], the “PARP1 trapping by nimbolide analogs” value is on record as “induce profound PARP1 trapping”.

On to `CC[Si](CC)(CC)O[C@H]1C(=O)[C@H](CC(=O)OC)[C@@]2(C)C(=O)C=C[C@@]3(C)C(=O)O[C@@H]1[C@H]23` [S-39], for which the “PARP1 trapping by nimbolide analogs” value was “induce PARP1 trapping”.

Usually IC50 stands for the concentration that inhibits the measured activity by half.
